Active and inactive are the calls of the source.
Columns and labels:
[1] = biological target: Peroxisome proliferator-activated receptor gamma/Nuclear receptor coactivator 1 (Homo sapiens, UniProt P37231); assay: TR-FRET dose response biochemical High Throughput Screening assay for agonists of the steroid receptor coactivator 1 (SRC-1) recruitment by the peroxisome proliferator-activated receptor gamma (PPAR gamma): non-selective agonists. [Related pubchem assays (depositor defined):AID1300, AID1808, AID504735, AID631]; assay type: protein assay
[2] = biological target: Nonstructural protein 1 (Influenza A virus, UniProt Q194T2); assay type: functional, Influenza A virus (A/California/07/2009(H1N1))
[3] = biological target: Peroxisome proliferator-activated receptor gamma/Nuclear receptor coactivator 2 (Homo sapiens, UniProt P37231); assay: (§1) TR-FRET dose response biochemical High Throughput Screening assay for agonists of the steroid receptor coactivator 2 (SRC-2) recruitment by the peroxisome proliferator-activated receptor gamma (PPAR gamma): non-selective agonists. [Related pubchem assays: 1297, 1032 ]; assay type: functional
[4] = biological target: Peroxisome proliferator-activated receptor gamma/Nuclear receptor coactivator 3 (Homo sapiens, UniProt P37231); assay: as §1, with “3 (SRC-3)” for “2 (SRC-2)”, “1301 (Confirmation screen.), 1048 (Primary screen.)]” for “1297, 1032 ]”; assay type: functional
[5] = test system: Streptococcus; assay: GAS UMAA2166 growth inhibition – luminescence, BacTiterGlo, counter-screen for streptokinase expression inhibitor project, dose response (AID 1915); assay type: functional, organism-based;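 also: potency for reduction of bacterial viability or growth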
[6] = biological target: T1, Streptokinase A (Streptococcus pyogenes serotype M1, UniProt P10520); assay: viability-normalized secreted streptokinase activity reduction – plasminogen activation absorbance, OD405, dose response (AID 1914); assay type: functional, Streptococcus pyogenes M1 GAS;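 also: secreted streptokinase activity via plasminogen activation per viability signal from cell pellet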
T1 sequence (P10520 whole entry): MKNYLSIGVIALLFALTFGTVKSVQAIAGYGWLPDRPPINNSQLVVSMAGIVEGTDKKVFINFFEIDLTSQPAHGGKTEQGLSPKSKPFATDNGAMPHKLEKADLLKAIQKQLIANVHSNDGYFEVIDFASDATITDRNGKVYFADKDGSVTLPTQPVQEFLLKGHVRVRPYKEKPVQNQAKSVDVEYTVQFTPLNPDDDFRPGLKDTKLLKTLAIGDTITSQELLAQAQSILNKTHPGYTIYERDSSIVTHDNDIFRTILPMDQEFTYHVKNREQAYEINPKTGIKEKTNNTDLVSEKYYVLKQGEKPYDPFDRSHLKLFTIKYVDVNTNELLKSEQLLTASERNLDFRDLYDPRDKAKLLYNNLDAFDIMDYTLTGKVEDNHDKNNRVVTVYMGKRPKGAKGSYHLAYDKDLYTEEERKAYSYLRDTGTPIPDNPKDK

[7] = test system: Streptococcus sp. 'group A'; assay: Streptococcus pyogenes SK(-)GAS viability under kanamycin – luminescence, BacTiterGlo, confirmation, counter-screen for streptokinase expression inhibitor project, dose response (AID 1900); assay type: functional, organism-based
[8] = biological target: T2, Tyrosine-protein phosphatase non-receptor type 22 (Homo sapiens, UniProt Q9Y2R2); assay type: functional
T2 sequence (Q9Y2R2 whole entry): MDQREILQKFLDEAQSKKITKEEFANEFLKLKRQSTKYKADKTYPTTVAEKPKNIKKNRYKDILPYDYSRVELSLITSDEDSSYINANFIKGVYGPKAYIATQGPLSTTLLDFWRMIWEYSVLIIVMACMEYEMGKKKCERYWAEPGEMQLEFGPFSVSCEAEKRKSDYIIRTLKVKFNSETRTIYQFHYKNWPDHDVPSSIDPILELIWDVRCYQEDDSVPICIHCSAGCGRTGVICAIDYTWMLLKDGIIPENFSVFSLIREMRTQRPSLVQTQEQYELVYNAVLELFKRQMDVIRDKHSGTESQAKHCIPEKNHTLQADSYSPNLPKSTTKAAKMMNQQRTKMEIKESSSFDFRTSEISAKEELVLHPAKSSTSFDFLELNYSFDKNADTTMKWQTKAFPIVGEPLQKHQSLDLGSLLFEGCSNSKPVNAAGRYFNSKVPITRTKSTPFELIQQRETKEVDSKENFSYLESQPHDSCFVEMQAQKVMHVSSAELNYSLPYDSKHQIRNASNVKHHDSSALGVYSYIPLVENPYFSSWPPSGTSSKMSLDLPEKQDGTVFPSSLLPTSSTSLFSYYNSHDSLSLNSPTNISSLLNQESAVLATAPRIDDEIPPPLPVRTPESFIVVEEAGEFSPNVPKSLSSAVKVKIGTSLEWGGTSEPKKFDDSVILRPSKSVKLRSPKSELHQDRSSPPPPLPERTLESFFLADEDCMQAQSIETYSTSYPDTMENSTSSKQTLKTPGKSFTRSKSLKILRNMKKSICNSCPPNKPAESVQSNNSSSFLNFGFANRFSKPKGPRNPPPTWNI

[9] = biological target: T3, Tyrosine-protein phosphatase non-receptor type 7 (Homo sapiens, UniProt P35236); assay type: functional
T3 sequence (P35236 whole entry): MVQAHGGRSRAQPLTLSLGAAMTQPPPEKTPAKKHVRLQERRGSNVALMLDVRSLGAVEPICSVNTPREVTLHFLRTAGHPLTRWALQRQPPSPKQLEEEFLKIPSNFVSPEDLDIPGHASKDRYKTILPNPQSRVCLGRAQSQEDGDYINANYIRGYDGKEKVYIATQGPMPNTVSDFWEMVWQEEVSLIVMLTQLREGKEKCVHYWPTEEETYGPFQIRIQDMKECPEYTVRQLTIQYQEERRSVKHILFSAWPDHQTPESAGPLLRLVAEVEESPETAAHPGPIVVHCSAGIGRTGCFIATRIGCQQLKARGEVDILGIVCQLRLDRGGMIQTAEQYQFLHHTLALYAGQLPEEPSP

[10] = biological target: T2, Tyrosine-protein phosphatase non-receptor type 22; assay type: functional; remark: listed apart in the source
[11] = biological target: T4, Exodeoxyribonuclease V (Escherichia coli (strain K12), UniProt P04993+P07648+P08394); assay: RecBCD inhibition via phage-restricted bacterial growth – absorbance, V66 E. coli, mutant T4 phage, counter-screen for AddAB inhibitor project, dose response (AID 492957); assay type: functional, cell-based, Escherichia coli str. K-12 substr. MG1655
T4 sequence (P04993 whole entry): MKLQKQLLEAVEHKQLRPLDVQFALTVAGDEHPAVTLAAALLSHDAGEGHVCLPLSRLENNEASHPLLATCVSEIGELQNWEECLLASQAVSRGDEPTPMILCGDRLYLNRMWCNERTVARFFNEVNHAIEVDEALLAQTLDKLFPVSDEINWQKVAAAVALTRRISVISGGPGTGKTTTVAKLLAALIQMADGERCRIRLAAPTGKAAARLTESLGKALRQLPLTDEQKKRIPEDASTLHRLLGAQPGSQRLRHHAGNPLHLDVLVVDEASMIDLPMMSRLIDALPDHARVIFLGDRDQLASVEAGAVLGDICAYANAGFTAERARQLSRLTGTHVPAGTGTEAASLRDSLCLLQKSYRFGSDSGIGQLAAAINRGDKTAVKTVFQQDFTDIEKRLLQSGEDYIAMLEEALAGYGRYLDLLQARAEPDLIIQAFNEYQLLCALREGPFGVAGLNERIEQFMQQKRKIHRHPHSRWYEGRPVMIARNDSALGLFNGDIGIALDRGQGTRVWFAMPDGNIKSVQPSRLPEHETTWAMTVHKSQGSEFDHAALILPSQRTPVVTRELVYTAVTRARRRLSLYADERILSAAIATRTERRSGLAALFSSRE
T4 sequence (P07648 whole entry): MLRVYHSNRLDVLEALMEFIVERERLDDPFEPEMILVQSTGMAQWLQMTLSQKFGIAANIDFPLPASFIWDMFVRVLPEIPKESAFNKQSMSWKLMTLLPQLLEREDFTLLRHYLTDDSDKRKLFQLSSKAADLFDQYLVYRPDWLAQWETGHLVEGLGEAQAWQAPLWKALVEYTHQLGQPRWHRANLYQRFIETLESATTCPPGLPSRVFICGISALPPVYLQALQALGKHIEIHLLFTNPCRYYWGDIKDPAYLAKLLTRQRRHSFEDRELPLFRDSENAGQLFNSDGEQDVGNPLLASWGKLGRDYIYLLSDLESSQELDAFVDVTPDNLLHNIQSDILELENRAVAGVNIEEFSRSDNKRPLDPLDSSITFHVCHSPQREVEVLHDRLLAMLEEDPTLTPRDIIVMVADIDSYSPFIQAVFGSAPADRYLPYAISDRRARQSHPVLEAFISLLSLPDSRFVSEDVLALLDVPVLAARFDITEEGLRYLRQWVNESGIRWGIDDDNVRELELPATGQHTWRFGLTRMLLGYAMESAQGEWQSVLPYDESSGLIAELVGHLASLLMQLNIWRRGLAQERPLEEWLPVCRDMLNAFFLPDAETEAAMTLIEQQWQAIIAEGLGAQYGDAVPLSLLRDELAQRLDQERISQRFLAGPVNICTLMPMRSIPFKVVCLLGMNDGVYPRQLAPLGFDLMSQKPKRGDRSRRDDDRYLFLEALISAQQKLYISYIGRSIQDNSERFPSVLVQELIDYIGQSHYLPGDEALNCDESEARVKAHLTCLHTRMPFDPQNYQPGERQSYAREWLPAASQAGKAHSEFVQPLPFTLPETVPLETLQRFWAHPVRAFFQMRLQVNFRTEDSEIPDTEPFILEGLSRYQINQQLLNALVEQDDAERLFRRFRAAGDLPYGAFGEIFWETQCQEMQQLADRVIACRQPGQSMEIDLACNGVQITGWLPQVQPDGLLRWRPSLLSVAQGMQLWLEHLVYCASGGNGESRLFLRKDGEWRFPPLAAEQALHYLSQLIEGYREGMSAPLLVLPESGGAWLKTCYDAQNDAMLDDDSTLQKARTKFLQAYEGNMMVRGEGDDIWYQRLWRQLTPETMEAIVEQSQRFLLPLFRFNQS
T4 sequence (P08394 whole entry): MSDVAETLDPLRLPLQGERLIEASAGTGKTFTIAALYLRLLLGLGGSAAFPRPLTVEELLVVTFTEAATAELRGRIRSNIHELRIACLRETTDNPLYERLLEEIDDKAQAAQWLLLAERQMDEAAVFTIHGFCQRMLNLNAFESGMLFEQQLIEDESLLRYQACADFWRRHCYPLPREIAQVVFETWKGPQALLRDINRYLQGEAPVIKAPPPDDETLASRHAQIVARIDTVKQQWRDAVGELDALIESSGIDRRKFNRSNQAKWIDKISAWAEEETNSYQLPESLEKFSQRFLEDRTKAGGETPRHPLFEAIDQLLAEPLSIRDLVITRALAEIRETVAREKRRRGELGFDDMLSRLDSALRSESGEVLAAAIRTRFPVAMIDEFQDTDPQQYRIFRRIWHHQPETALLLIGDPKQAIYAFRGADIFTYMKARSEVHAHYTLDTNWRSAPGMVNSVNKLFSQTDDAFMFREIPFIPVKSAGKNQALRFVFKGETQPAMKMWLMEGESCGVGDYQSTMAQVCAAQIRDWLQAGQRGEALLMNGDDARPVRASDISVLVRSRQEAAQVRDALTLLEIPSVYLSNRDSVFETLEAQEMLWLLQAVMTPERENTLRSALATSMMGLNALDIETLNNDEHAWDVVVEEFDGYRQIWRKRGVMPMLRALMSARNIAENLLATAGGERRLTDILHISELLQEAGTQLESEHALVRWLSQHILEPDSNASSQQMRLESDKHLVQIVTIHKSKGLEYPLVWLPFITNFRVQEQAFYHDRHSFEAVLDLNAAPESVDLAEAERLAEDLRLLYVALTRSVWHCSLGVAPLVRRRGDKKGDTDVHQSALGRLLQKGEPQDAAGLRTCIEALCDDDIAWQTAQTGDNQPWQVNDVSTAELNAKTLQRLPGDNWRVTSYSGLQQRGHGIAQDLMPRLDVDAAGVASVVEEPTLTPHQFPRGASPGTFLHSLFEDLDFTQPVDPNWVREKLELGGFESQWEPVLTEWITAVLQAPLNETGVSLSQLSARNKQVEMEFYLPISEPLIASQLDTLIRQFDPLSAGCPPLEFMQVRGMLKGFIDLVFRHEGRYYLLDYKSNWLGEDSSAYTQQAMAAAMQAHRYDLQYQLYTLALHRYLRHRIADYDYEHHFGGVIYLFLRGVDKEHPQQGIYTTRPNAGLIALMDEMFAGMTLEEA

[12] = Counterscreen for AddAB inhibitors: absorbance-based bacterial cell-based high throughput dose response assay for inhibitors of bacterial viability. [Related pubchem assays (depositor defined):AID435030, AID449728, AID449731, AID488942, AID488955, AID488956]; assay type: functional

Peroxisome proliferator-activated receptor gamma/Nuclear receptor coactivator 2, sequence (P37231 whole entry): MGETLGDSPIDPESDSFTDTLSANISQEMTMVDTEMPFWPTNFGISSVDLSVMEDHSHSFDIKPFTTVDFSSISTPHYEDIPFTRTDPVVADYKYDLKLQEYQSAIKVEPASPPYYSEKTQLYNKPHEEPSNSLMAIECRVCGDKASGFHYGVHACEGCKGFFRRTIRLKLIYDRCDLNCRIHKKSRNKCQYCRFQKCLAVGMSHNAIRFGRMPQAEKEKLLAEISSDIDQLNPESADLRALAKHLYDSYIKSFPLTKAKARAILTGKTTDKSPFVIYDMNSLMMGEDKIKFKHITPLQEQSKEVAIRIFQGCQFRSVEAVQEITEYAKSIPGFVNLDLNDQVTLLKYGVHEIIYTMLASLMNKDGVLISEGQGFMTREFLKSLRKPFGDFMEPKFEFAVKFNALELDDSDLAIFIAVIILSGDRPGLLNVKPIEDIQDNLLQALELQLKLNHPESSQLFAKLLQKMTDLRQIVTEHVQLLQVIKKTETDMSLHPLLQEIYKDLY
Peroxisome proliferator-activated receptor gamma/Nuclear receptor coactivator 2, sequence (Q15596 whole entry, further chain): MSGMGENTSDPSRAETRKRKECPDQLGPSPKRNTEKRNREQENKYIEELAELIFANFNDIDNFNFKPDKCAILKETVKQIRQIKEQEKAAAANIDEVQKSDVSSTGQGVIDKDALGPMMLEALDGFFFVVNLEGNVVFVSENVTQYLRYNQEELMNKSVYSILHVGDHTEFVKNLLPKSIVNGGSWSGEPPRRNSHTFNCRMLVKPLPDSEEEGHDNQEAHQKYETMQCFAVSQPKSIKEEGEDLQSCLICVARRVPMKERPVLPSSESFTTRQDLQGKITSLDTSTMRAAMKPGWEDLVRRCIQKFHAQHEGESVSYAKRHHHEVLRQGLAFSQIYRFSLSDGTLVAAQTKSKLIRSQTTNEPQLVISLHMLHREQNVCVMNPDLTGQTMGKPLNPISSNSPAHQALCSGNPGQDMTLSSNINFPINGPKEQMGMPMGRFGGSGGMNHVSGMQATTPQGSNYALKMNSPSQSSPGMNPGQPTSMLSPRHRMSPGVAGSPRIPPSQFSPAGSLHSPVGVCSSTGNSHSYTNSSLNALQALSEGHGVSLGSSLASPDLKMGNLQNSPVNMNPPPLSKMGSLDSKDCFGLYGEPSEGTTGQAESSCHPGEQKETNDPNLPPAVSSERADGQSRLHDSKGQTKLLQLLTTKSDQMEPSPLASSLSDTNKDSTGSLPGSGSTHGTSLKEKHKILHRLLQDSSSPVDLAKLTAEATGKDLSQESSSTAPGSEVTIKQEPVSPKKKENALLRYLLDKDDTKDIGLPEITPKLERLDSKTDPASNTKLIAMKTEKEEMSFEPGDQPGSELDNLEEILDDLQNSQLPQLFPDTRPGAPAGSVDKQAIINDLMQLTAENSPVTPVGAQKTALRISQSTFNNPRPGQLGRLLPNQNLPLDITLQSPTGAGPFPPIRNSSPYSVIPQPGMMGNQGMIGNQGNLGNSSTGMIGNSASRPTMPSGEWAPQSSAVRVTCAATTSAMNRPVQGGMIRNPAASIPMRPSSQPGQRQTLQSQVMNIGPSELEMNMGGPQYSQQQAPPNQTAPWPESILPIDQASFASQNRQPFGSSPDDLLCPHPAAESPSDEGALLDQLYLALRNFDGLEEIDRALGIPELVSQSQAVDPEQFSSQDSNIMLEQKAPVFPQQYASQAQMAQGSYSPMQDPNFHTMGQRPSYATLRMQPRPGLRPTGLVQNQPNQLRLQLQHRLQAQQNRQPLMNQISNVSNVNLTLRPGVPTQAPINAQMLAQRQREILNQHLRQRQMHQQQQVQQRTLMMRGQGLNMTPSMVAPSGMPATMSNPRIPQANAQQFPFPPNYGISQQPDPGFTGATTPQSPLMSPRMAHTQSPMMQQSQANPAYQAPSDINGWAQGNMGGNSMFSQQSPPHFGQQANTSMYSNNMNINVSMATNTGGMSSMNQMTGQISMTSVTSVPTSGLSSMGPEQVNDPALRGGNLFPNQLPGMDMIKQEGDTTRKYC
Peroxisome proliferator-activated receptor gamma/Nuclear receptor coactivator 3, sequence (P37231 whole entry): as the sequence (P37231 whole entry) above
Peroxisome proliferator-activated receptor gamma/Nuclear receptor coactivator 3, sequence (Q9Y6Q9 whole entry, further chain): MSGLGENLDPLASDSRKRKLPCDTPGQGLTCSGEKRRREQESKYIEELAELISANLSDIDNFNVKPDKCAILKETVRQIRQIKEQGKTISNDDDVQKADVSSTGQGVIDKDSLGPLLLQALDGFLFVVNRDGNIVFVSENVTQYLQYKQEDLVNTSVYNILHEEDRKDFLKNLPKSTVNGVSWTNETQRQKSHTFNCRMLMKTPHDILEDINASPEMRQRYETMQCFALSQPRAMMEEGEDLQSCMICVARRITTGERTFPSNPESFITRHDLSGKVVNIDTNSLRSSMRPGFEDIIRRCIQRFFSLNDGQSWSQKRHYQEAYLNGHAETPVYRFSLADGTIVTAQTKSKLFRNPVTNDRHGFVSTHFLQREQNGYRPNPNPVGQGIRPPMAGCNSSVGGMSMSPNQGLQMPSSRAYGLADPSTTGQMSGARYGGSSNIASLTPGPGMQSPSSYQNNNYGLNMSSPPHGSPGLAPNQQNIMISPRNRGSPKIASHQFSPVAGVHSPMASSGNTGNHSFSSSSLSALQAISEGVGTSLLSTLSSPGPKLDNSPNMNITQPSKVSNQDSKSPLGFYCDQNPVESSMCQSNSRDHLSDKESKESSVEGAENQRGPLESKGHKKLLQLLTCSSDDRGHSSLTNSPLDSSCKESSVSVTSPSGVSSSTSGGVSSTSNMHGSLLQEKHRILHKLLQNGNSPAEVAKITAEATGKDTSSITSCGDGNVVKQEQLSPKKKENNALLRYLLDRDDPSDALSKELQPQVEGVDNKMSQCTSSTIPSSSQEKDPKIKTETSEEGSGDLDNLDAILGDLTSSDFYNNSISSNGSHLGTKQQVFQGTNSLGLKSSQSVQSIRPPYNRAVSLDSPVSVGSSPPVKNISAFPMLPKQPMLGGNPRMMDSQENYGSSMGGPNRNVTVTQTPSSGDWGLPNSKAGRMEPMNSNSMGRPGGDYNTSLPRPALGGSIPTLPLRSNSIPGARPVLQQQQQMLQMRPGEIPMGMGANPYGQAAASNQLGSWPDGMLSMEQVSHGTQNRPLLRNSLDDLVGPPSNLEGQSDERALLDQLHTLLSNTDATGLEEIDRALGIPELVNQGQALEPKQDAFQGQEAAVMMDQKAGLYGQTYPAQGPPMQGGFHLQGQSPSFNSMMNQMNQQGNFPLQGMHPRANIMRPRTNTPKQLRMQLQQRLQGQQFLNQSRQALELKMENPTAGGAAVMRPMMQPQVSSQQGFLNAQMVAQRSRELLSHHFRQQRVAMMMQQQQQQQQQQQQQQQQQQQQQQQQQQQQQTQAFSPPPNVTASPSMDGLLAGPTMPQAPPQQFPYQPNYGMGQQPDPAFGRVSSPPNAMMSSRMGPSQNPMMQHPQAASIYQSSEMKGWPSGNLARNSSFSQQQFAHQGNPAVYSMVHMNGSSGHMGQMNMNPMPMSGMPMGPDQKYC
Nonstructural protein 1, sequence (Q194T2 whole entry): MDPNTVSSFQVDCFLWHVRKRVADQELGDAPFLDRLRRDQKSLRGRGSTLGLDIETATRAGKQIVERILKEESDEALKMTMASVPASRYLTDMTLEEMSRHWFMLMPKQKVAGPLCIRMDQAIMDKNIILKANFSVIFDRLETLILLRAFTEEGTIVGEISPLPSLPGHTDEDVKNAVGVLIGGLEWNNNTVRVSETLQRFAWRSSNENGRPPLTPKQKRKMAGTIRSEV

Structure (SMILES)	IC50 [8]	IC50 [9]	IC50 [10]	further results
CC12CCC(C(=O)N(CSC(=S)N/N=C\c3ccccc3O)C1=O)C2(C)C (stereo not drawn)				EC50 [1]: 7.15 µM (active); IC50 [2]: 2.09 µM (active); EC50 [3]: 7.31 µM (active); EC50 [4]: 34.9 µM (not active); EC50 [5]: 5.29 µM (active); EC50 [6]: > 150 µM (not active); EC50 [7]: 2.43 µM (active)
CCOC(=O)C(NC(=O)CCl)(Nc1ccc(C(O)(C(=O)OCC)C(F)(F)F)cc1)C(F)(F)F (stereo not drawn)	> 79.4 µM (inactive)	> 79.4 µM (inactive)	> 79.4 µM (inactive)	
CCCCC(C(=O)OCC)C(N)Cc1ccc(F)cc1 (stereo not drawn)	> 79.4 µM (inactive)	> 79.4 µM (inactive)	> 79.4 µM (inactive)	
O=C(NNC(=O)c1cccc(Br)c1)C(=O)N1CCCCC1	> 79.4 µM (inactive)	> 79.4 µM (inactive)	> 79.4 µM (inactive)	
O=C(Nc1ccc2[nH]c(O)nc2c1)c1ccc([N+](=O)[O-])o1				IC50 [11]: > 119 µM (inactive); IC50 [12]: 29 µM (inactive)

From ChEMBL document CHEMBL1201862, “PubChem BioAssay data set” (2004)
